Experiments:
Type in all cases: functional
Saccharomyces cerevisiae [1] = experiment: (§1) MMV: Growth assays were conducted using the prototrophic S. cerevisiae strain JHY222. Each MMV compound (0.1 mM) was tested in minimal media containing dextrose as a carbon source (Yeast Nitrogen Base, Dextrose; YNBD). The growth rate in the presence of each MMV compound was calculated as follows: (i) the first 10 OD readings were averaged and subtracted from all OD readings of the corresponding curve to set the baseline of the growth curve to zero, and (ii) the area under the curve (AUC) was then calculated as the sum of all OD readings. […] A relative growth value was calculated as follows: AUC(DRUG) - AUC(DMSO)/AUC(DMSO); where AUC(DMSO) represents growth measured in a DMSO control well that was on the same microtiter plate of the drug-treated culture.
Saccharomyces cerevisiae [2] = experiment: as §1, with “ethanol and glycerol” for “dextrose”, “as” for “as a”, “sources” for “source”, “Ethanol, Glycerol; YNBEG).” for “Dextrose; YNBD).”
Saccharomyces cerevisiae [3] = experiment: as §1, with “rich” for “minimal”, “Extract, Peptone,” for “Nitrogen Base,”, “YPD).” for “YNBD).”

SMILES | Relative Growth (Saccharomyces cerevisiae [1]) | Relative Growth (Saccharomyces cerevisiae [2]) | Relative Growth (Saccharomyces cerevisiae [3])
CCOc1ccc(/C=C/c2nc(=O)c3ccccc3o2)cc1 | 0.0067 | 0.0498 | 0.0045
CCCCN(CCCC)S(=O)(=O)c1ccc(NC(=O)c2ccco2)cc1 | -0.9663 | -0.9939 | -0.9715
CCOc1cc(Br)c(C(C)NC(=O)c2cccc(OC)c2)cc1OCC (stereo not drawn) | -0.0511 | -0.5924 | 0.0654
COc1ccc(C=C2SC(=N)N(c3ccccc3OC)C2=O)cc1 | -0.0085 | -0.0639 | -0.083
CCC(=O)Nc1nnc(Cc2ccc(OC)c(OC)c2)s1 | -0.019 | -0.1225 | -0.0143
COc1ccc(C2NCCc3c2[nH]c2ccccc32)cc1CN1CCN(c2ccc(F)cc2)CC1.Cl (stereo not drawn) | 0.0397 | -0.0259 | -0.0229
COc1ccc(Nc2nc(NCc3ccccc3)c3ccccc3n2)cc1 | 0.0331 | -0.0366 | 0.0094
Cc1ccnc(NC(c2cccc(OCc3ccccc3)c2)c2ccc3cccnc3c2O)c1 (stereo not drawn) | 0.0892 | -0.3469 | 0
CCOC(=O)c1c(NC(=O)c2ccccc2)sc2c(O)c(CN(CC)CC)ccc12 | 0.0832 | 0.1716 | -0.0008
COCCNCC(O)Cn1c2ccc(Cl)cc2c2cc(Cl)ccc21 (stereo not drawn) | -0.1893 | -0.4771 | -0.9998
CCCCCn1c(=N)n(CC(O)COc2cccc(C)c2)c2ccccc21.Cl (stereo not drawn) | -0.2633 | -0.7976 | 0.0144
COc1ccc(C(O)(CCC(C)C)C(CN2CCOCC2)c2ccc(Cl)cc2)cc1.Cl (stereo not drawn) | -0.0398 | -0.1228 | -0.0809
CC(C)(C)c1ccc2c(c1)CN(Cc1ccc(Cl)cc1)CO2 | -0.1149 | -0.1101 | -0.9993
COc1cc(CNCCc2ccc(Cl)cc2)cc(OC)c1O | 0.0037 | -0.0938 | 0.0063
Cc1sc(NC(=O)c2ccccc2)c(C(c2cccs2)N2CCN(c3ccccc3)CC2)c1C (stereo not drawn) | -0.0211 | 0.0234 | 0.0207
Cc1ccc(-c2cc(C(=O)Nc3ccc(S(=O)(=O)N4CCCCC4)cc3)[nH]n2)c(O)c1 | -0.0309 | -0.0163 | -0.07
O=C(NC1CCN(Cc2ccccc2)CC1)c1cc(C(=O)NC2CCN(Cc3ccccc3)CC2)cc(C(=O)NC2CCN(Cc3ccccc3)CC2)c1 | 0.0347 | -0.1727 | -0.0223
COc1ccc2c(c1OC)C(=O)N1c3ccccc3N=C(c3ccc(C)cc3)CC21 (stereo not drawn) | -1.0612 | -1.0982 | -0.0173

SMILES | Relative Growth (Saccharomyces cerevisiae [1]) | Relative Growth (Saccharomyces cerevisiae [2]) | Relative Growth (Saccharomyces cerevisiae [3])
COCCn1c(C)nc2ccccc2c1=O | 0.0485 | -0.2443 | -0.0038
Cc1cc(N2CCN(C3CCCC3)CC2)n2c(nc3ccccc32)c1C#N | 0.1152 | -0.0829 | -0.0263
COc1ccc(CCn2c(=N)c(C(=O)NCc3cccnc3)cc3c(=O)n4cccc(C)c4nc32)cc1 | 0.0391 | -0.1242 | 0.0999
OC(CNC1CCCC1)Cn1c2ccccc2c2ccccc21 (stereo not drawn) | -0.142 | -0.0741 | -0.0524
CCOC(=O)C1(Cc2ccccc2)CCN(Cc2cccc(OC)c2O)CC1 | -0.0215 | -0.0203 | -0.0248
Cc1ccc(C(=O)c2oc3ccc4c(C)cc(=O)oc4c3c2C)cc1 | -0.0077 | -0.1519 | -0.0457
Cc1ccc(-c2cc3c(SCC(=O)Nc4cc(C(F)(F)F)ccc4Cl)nccn3n2)cc1 | 0.117 | -0.0739 | 0.0079
O=[N+]([O-])c1ccc(C=NNc2nc3ccccc3[nH]2)cc1 | -1.0011 | -1.0063 | -0.6981
C=CCc1c(C)nc2ccccc2c1O | -0.0056 | 0.1025 | -0.0062
CCOc1ccc(-c2nc(NC(=O)c3cccc(S(C)(=O)=O)c3)sc2C)cc1 | 0.0499 | 0.1015 | 0.0098
Cc1cc(C)c2c(c1)OCN(Cc1ccccc1Cl)C2 | -0.0636 | -0.3214 | -0.0627
CCOC(=O)C1=CN(C)C=C(C(=O)OCC)C1c1cc(Br)c(OCC)c(OC)c1 | 0.2106 | -0.4757 | -0.1817
CC1CCN(Cc2c(O)ccc3cc(-c4nc5ccccc5s4)c(=O)oc23)CC1 | -0.0399 | -0.3243 | -0.0068
CC(C)OCc1cc(CN2CCN(c3cccc(Cl)c3)CC2)c(O)c2ncccc12 | -0.1654 | -0.1438 | -1.0115
COc1ccc2c(c1)C1(Nc3ccccc3-c3nc4ccccc4n31)C(=O)N2 (stereo not drawn) | 0.0329 | -0.0059 | -0.0036
CCOc1ccccc1CNC(=O)C1c2ccccc2C(=O)N(CC(C)C)C1c1cccs1 (stereo not drawn) | 0.0472 | -0.1153 | -0.0674
Oc1ccccc1CN1CCC2(CCCN(Cc3ccccc3F)C2)C1 (stereo not drawn) | -0.0494 | -0.309 | -0.0746
Cc1cc(=O)oc2c1ccc1oc(C(=O)c3ccccc3)c(C)c12 | -0.1287 | -0.3574 | 0.0119

— ChEMBL document CHEMBL3301546, “MMV Malaria Box yeast growth screening”
